Earlier results, collected in patent publication US8067434B2, “Compounds and methods for development of Ret modulators” (Plexxikon Inc., priority 2003, dated 2011).

Key:
Ret = conditions: DAergic neuron cultures
[1] = test system: TT cells, with RetC634 mutant; conditions: TT cells in RPMI medium, varying concentrations
Ret transformed NIH3T3 = conditions: Ret transformed NIH3T3, treatment with inhibitor
Ret kinase = conditions: incubation with the inhibitor

In the case of `C[C@]12O[C@H](C[C@]1(O)C(=O)O)n1c3ccccc3c3c4c(c5c6ccccc6n2c5c31)CNC4=O` [Compound K-252b, K-252b], the “normal functioning of Ret in GDNF-induced differentiation” value (Ret) is given as “inhibited”.
In the case of `Cc1ccc(NC(=O)c2ccc(CN3CCN(C)CC3)cc2)cc1Nc1nccc(-c2cccnc2)n1` [STI571], the cell growth [1] is given as “inhibiting cell growth”.
For `C=CCNC1=C2C[C@@H](C)C[C@H](OC)[C@H](O)[C@@H](C)/C=C(\C)[C@H](OC(N)=O)[C@@H](OC)/C=C\C=C(/C)C(=O)NC(=CC1=O)C2=O` [allyl-geldanamycin], the cell growth [1] is given as “inhibiting cell growth”.
For `O=c1c(-c2ccc(O)cc2)coc2cc(O)cc(O)c12` [genistein], the cell growth [1] is given as “inhibiting cell growth”.
In the case of `CO[C@H]1[C@@H](OC)C[C@H](C)[C@@H](OC)C2=CC(=O)C=C(NC(=O)/C(C)=C/C=C\[C@H](OC)[C@@H](OC(N)=O)/C(C)=C/[C@@H]1C)C2=O` [herbimycin A], the cellular phenotype (Ret transformed NIH3T3) is listed as “reverted the cellular phenotype to a more untransformed flat morphology” and the “intracellular Ret kinase activity” value (Ret kinase) is listed as “decreased”.
